Experimental data reported in US5407951A, “Sulphonamidocycloalkane compounds, pharmaceutical compositions containing them, and methods of use thereof” (Boehringer Mannheim GmbH, priority 1988, dated 1995).

Key:
[1] = test system: Male NMRI mice; assay: In vivo inhibition of induced pulmonary emboli (survival after lethal dose of U46619); conditions: lethal dose U46619 (800-1000 ug/kg) into tail vein four hours later, survival after 24 hours, groups of 5; for Survival Rate of Mouse 1 mg/kg, 4 h in %: 1 mg/kg by gastric route in 1% methyl cellulose; for Survival Rate of Mouse 25 mg/kg, 4 h in %: 25 mg/kg by gastric route in 1% methyl cellulose
Procedure: (b) In vivo Inhibition of Induced Pulmonary Emboli
Male NMRI mice, having a body weight of approximately 25g, were separated into groups of 5. Representative examples of the compounds of this invention listed in part (a) were suspended 1% methyl cellulose and administered to the animals by gastric incubation in amounts providing 1/mg/kg and 25/mg/kg of the antagonist, Four hours after incubation, a previously determined lethal dose of U46619 (800-1000 ug/kg) was injected into the tail vein of each animals. The survival rates for each group of mice was determined after 24 hours. The results are shown in Table 1 and indicate correlation with the IC50 measured in vitro.

[2] = test system: Platelet-rich human blood plasma; assay: In vitro inhibition of platelet aggregation induced by thromboxane mimetic U46619 (Born and Cross, aggregometer); assay type: cell-based; conditions: citrated platelet-rich human plasma, measured for five minutes
Procedure: (a) In vitro Inhibition of Platelet Aggregation.
Platelet-rich human blood plasma was treated with 3.2% citrate at a volume ratio of 1:9 to inhibit clotting. A selective thromboxane mimetic, U46619, which is a stable analog of the prostaglandin endoperoxide PGH2, as described by Coleman et al., Brit. J. Pharmocol. 68,127P (1980) was obtained from Upjohn & Co., Kalamazoo, Mich.
The test protocol was that described by Born and Cross, J. Physiol. 168,178 (1963) with the degree of aggregation measured using a 4-channel aggregometer (Profiler, Bio/Data Co.). The compounds of this invention, Examples 2.1, 4(cis) 4(trans), 6 ad 7 were diluted in saline, at final concentrations of 10^-4 to 10^-9M. Saline was used as a control. Measurements were made for a period of five minutes, After addition of the tromboxane mimetic. From the data obtained, an inhibitory concentration IC50 was calculated using standard methods.

| Compound | Survival Rate of Mouse 1 mg/kg, 4 h in % [1] [%] | Survival Rate of Mouse 25 mg/kg, 4 h in % [1] [%] | IC50 [2] [nM] |
| --- | --- | --- | --- |
| O=C(CO[C@H]1CC[C@H](CCNS(=O)(=O)c2ccc(Cl)cc2)CC1)Nc1nnn[nH]1 [4 (trans), trans-4-[2-(4-chlorobenzenesulphonylamino)-ethyl]-cyclohexyloxy acetic acid (tetrazol-5-yl-amide)] | 60 | 100 | 5800 |
| O=C(O)C1CCC(CCNS(=O)(=O)c2ccc(Cl)cc2)CC1 (stereo not drawn) [Example 2.1] | 100 | 100 | 2000 |
| O=C(CO[C@H]1CC[C@@H](CCNS(=O)(=O)c2ccc(Cl)cc2)CC1)Nc1nnn[nH]1 [4 (cis), cis-4-[2-(4-Chlorobenzenesulphonylamino)-ethyl]cyclohexyloxyacetic acid (tetrazol-5-yl)-amide] | 100 | 100 | 4600 |
| O=S(=O)(NCCC1CCC(OCc2nn[nH]n2)CC1)c1ccc(Cl)cc1 (stereo not drawn) [Example 7, 1-[2-(4-Chlorobenzenesulphonylamino)-ethyl]-4-(tetrazol-5-yl-methyleneoxy)-cyclohexane] | 100 | 100 | 420 |
| O=C(CC1CCC(CCNS(=O)(=O)c2ccc(Cl)cc2)CC1)Nc1nnn[nH]1 (stereo not drawn) [Example 6, 4-[2-(4-Chlorobenzenesulphonylamino)-ethyl]-cyclohexylacetic acid (tetrazol-5-yl-amide)] | 100 | 100 | 2500 |
